Patent publication US20040166099A1, “Molecules preferentially associated with effector T cells and methods of their use” (TolerRx, Inc., priority 2002, published 2004)
Entries after “also recorded” stand apart in the source; their conditions may differ.

Legend:
Type in all cases: cell-based, human
Th1 cells = test: Proliferation (3H-thymidine incorporation) of differentiated Th1 cells stimulated with CD3 and CD28
From the text: (§1) FIG. 4 depicts inhibition of proliferation of Th1 and Th2 cells, but not regulatory T cells, by Rottlerin, a commercially available inhibitor of PKC enzymes. Differentiated cells were stimulated with CD3 and CD28 in the presence of absence of the PKC inhibitor Rottlerin. Incorporation of ^3H-thymidine was used to monitor cell proliferation. Proliferation of each cell type is normalized to the proliferation observed in the absence of inhibitor.
(§2) Differentiated cell lines were produced from cells prepared from human cord blood or peripheral blood CD4+CD45RA+naïve T cells by a variety of methods, including flow cytometry and magnetic bead separations. Purity of the starting populations was >95%. Cells were then stimulated by CD3 and CD28 antibodies in RPMI 1640 with 10% FCS and 1% Human AB serum with defined mixtures of cytokines and neutralizing antibodies to cytokines to produce the differentiated cell types. Th1 cells were produced by culture with IL12 (62 U/ml) and anti-IL4 (0.2 ug/ml); Th2 cells were produced by culture in IL4(145 U/ml) and anti-IL12 (10 ug/ml) and anti-IFNγ (10 ug/ml); and regulatory T cells were produced by culture in TGFβ (32 U/ml), IL9 (42 U/ml), anti-IL4 (10 ug/ml) and anti-IL12 (10 ug/ml) and anti-IFNγ(10 ug/ml). (Note: anti-IL12 was not used in all experiments). All cultures were supplemented with IL2 (65 U/ml) and IL15 (4500 U/ml). Cells were split into larger culture dishes as warranted by cell division. At the conclusion of one round of cell differentiation (7-12 days), cells were harvested for preparation of total RNA for use in the gene chip experiments.
(§3) Differentiated cells, prepared as above, were re-stimulated using CD3 and CD28 in the presence of a range of concentrations of the commercial inhibitor Rottlerin.
(§4) Three days after initiation of the cultures, three replicate tissue culture wells for each condition for each cell type were fed with media containing ^3H-thymidine to monitor cell division. Wells were harvested 18 hr later and incorporated ^3H was measured by scintillation counting.

Th2 cells = test: Proliferation (3H-thymidine incorporation) of differentiated Th2 cells stimulated with CD3 and CD28
From the text: as §1, §2, §3, §4

[1] = test system: regulatory T cells (TGFβ-derived Treg cells); test: Proliferation (3H-thymidine incorporation) of differentiated regulatory T cells stimulated with CD3 and CD28
From the text: as §1
Differentiated cell lines were produced from cells prepared from human cord blood or peripheral blood CD4+CD45RA+naïve T cells by a variety of methods, including flow cytometry and magnetic bead separations. Purity of the starting populations was >95%. Cells were then stimulated by CD3 and CD28 antibodies in RPMI 1640 with 10% FCS and 1% Human AB serum with defined mixtures of cytokines and neutralizing antibodies to cytokines to produce the differentiated cell types. […]
as §4

[2] = FIG. 5 legend, representative data
[3] = wells coated with CD3 and CD28, 3H-thymidine fed at day 3, harvested 18 hr later, increasing concentrations of inhibitor, FIG. 5

Compound | inhibition of proliferation of Th1 cells (in words) (Th1 cells; [2]) | proliferation of Th1 cells relative to control (Th1 cells; [3]) | inhibition of proliferation of Th2 cells (in words) (Th2 cells; [2]) | proliferation of Th2 cells relative to control (Th2 cells; [3]) | inhibition of proliferation of TGFβ-derived Treg cells (in words) [1, 2] | inhibition of cell division / proliferation of Th1 cells (Th1 cells; Th1 cells re-stimulated using CD3 and CD28, 5 uM, three of three experiments, FIG. 4) | inhibition of cell division / proliferation of Th2 cells (Th2 cells; Th2 cells re-stimulated using CD3 and CD28, 5 uM, three of three experiments, FIG. 4) | inhibition of proliferation of regulatory T cells ([1]; regulatory T cells re-stimulated using CD3 and CD28, range of concentrations, three of three experiments, FIG. 4)
NH2-RQIKIWFQNRRMKWKKMDQNMFRNFSFNMP-COOH (H-RQIKIWFQNRRMKWKKMDQNMFRNFSFNMP-OH) [antennapedia-PKCθ peptide] | selectively inhibits | 16 % of control levels | selectively inhibits | 16 % of control levels | not | – | – | –
CC(=O)c1c(O)c(C)c(O)c(Cc2c(O)c3c(c(C(=O)/C=C/c4ccccc4)c2O)OC(C)(C)C=C3)c1O [Rottlerin] | – | – | – | – | – | inhibition; also recorded: inhibited | inhibition; also recorded: inhibited | not and did not inhibit
